These results are taken from publication PMC8921834, “Septins tune lipid kinase activity and PI(4,5)P2 turnover during G-protein–coupled PLC signalling in vivo” (Life Science Alliance, 2022).

The target in the test is T1, dPIP5K^L (Drosophila melanogaster, UniProt A0A6M3Q9L5).
T1 construct: gene PIP5K59B; full-length long isoform, 897 residues, about 100 kD; cDNA from fly retinae in pUAST-attB, transiently expressed in Drosophila S2R+ cells; lysate assayed
Briefly: in vitro lipid kinase assay, LC-MS/MS of product:substrate ratio. Type of test: biochemical. The settings on record: S2R+ lysate 10 μg; 600 pmol PI4P with phosphatidylserine micelles; ATP (40 μM in 2x buffer), pH 7.4, 30 °C, 30 min.

T1 sequence (A0A6M3Q9L5 1-891): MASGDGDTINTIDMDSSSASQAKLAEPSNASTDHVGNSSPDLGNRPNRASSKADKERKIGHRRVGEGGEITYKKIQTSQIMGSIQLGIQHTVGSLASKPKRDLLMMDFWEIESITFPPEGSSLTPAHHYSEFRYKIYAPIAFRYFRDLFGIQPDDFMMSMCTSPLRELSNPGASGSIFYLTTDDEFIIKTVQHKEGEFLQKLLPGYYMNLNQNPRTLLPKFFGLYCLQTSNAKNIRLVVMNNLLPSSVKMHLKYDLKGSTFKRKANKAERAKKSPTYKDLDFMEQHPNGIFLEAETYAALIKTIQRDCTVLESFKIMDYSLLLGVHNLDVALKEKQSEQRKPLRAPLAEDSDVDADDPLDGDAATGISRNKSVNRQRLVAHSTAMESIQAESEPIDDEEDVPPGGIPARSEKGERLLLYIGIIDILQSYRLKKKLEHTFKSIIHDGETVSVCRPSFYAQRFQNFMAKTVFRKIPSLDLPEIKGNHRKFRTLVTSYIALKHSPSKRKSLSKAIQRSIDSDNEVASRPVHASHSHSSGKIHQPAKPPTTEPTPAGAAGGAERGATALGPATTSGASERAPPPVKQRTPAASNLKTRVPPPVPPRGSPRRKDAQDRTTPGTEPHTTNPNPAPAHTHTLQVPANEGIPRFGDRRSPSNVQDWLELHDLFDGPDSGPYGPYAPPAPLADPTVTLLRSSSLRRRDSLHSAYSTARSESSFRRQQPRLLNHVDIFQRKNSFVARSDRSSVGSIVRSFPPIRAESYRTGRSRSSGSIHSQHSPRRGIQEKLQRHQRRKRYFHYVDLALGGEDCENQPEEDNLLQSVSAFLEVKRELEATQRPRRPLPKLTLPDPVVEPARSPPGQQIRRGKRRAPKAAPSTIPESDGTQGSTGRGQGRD

As to `CCCCC/C=C\C/C=C\C/C=C\C/C=C\CCCC(=O)O[C@H](COC(=O)CCCCCCCCCCCCCCCC)COP(=O)(O)O[C@H]1[C@H](O)[C@@H](O)[C@H](OP(=O)(O)O)[C@@H](O)[C@H]1O` [37:4 PI4P], the response ratio result was “response ratio of dPIP5K^L transfected lysates was significantly higher”.
